The text below walks through data of patent US20170253607A1, “LONG-ACTING HIV PROTEASE INHIBITOR” (Shionogi & Co., Ltd., priority 2014, published 2017).

For one series, the target named is HIV-1 PR (Human immunodeficiency virus type 1 group M subtype B, UniProt P04585). Briefly: HIV-protease inhibitory activity assay (FRET peptide substrate). The format is biochemical. To be noted: Test Example 1. An outline of the steps:
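HIV-1 PR (0.83 ng) preincubated with compounds 20 min at room temperature in 0.1 mol/L NaAc, 0.5 mol/L NaCl, 1 mmol/L EDTA, 1 mmol/L DTT, 0.05% Tween 20, pH 4.8. Cleavage of HiLyte Fluor 488/QXL 520 FRET peptide (2 μmol/L) read after 60 minutes at 485/535 nm; IC50 from four-parameter logistic fit.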

Series [1] can be described thus: Evaluation of total body clearance (CLtot), intravenous administration. The series is classed as in vivo, Sprague-Dawley (SD). The following applies: rat (SD), intravenous administration 0.5-10 mg/kg; CLtot = dose/AUC. Here is the method:
Dose: Intravenous administration with designated doses was selected. (Doses were changed depending on compounds.) • 0.5-10 mg/kg (n=2-3) Preparation of dosing formulation: The dosing solution was prepared by dissolving in an adequate solvent. Administration method: The dosing solution was injected into the tail vein by a syringe with a needle Blood sampling: The blood was collected at the scheduled time and obtained the plasma. Plasma concentrations of the compound were measured by LC/MS/MS. Statistical analysis: Area under the plasma concentration-time curve (AUC) of the compound was calculated by pharmacokinetic analysis software, WinNonlin™ and CLtot was calculated by dividing the dose by AUC.

Turning to `COc1ccc(S(=O)(=O)N(CC(C)C)CC(O)C(Cc2ccc(NCc3ccc(OC)cc3C(=O)Nc3sc4c(c3C(=O)O)CC(C)(C)CC4)cc2)NC(=O)OC2COC3(C)OCCC23)cc1` (stereo not shown) [Compound I-580], the IC50 (in general, the concentration that inhibits the measured activity by half) against HIV-1 PR turned out to be 3.23 nM. This molecule also showed a rat_CLt in series [1] of 0.0683 mL/min/kg.

Consider `COc1ccc(S(=O)(=O)N(CC(C)C)CC(O)C(Cc2ccc(OCc3ccccc3-c3nc4n(c3C(=O)O)CCCC4)cc2)NC(=O)OC2COC3(C)OCCC23)cc1` (stereo not shown) [Compound I-125], for which the IC50 at HIV-1 PR amounted to 1.58 nM. In series [1], this molecule returned a rat_CLt of 3.89 mL/min/kg.

For `COc1ccc(S(=O)(=O)N(CC(C)C)CC(O)C(Cc2ccc(NCc3cc(N4CCCCC4)ccc3-c3sc4c(c3C(=O)O)CC(C)(C)CC4)cc2)NC(=O)OC2COC3(C)OCCC23)cc1` (stereo not shown) [Compound I-689], at HIV-1 PR, the IC50 is 2.01 nM. The molecule also came in with a rat_CLt in series [1] of 0.385 mL/min/kg.

On to `COc1ccc(S(=O)(=O)N(CC(C)C)CC(O)C(Cc2ccc(NCc3cc4c(cc3-c3sc5c(c3C(=O)O)CC(C)(C)CC5)OCCO4)cc2)NC(=O)OC2COC3(C)OCCC23)cc1` (stereo not shown) [Compound I-651], for which inhibition against HIV-1 PR was half-maximal at 2 nM (IC50). For the same molecule, in series [1], the rat_CLt stood at 0.536 mL/min/kg.

`COc1ccc(S(=O)(=O)N(CC(C)C)CC(O)C(Cc2ccc(NCc3cc(N4CCN(C)CC4)ccc3-c3sc4c(c3C(=O)O)CC(C)(C)CC4)cc2)NC(=O)OC2COC3(C)OCCC23)cc1` (stereo not shown) [Compound I-680] returned an IC50 against HIV-1 PR of 2.1 nM. In series [1], this molecule registered a rat_CLt of 2.77 mL/min/kg.

Regarding `COc1ccc(S(=O)(=O)N(CC(C)C)CC(O)C(Cc2ccc(N(C)CC3=C(c4sc5c(c4C(=O)O)CC(C)(C)CC5)CCCCC3)cc2)NC(=O)OC2COC3(C)OCCC23)cc1` (stereo not shown) [Compound I-525], the IC50 against HIV-1 PR was determined as 5.75 nM. This molecule showed a rat_CLt in series [1] of 0.127 mL/min/kg.

`COc1ccc(S(=O)(=O)N(CC(C)C)CC(O)C(Cc2ccc(NCc3cc(OC)c(OC)cc3-c3sc4c(c3C(=O)O)CC(C)(C)CC4)cc2)NC(=O)OC2COC3(C)OCCC23)cc1` (stereo not shown) [Compound I-560]: the IC50 against HIV-1 PR was found to be 1.65 nM. The molecule further had a rat_CLt in series [1] of 4.5 mL/min/kg.

On HIV-1 PR, `COc1ccc(S(=O)(=O)N(CC(C)C)CC(O)C(Cc2ccc(NCc3cocc3-c3sc4c(c3C(=O)O)CC(C)(C)CC4)cc2)NC(=O)OC2COC3(C)OCCC23)cc1` (stereo not shown) [Compound I-528] had an IC50 of 2.36 nM. Besides, the rat_CLt in series [1] amounted to 4.05 mL/min/kg.

As for `CC1(C)CCc2sc(NC(=O)c3ccccc3CNc3ccc(CC(NC(=O)OC4COC5OCCC45)C(O)CN(CC4CCC4)S(=O)(=O)c4ccc5ncsc5c4)cc3)c(C(=O)O)c2C1` (stereo not shown) [Compound I-862], at HIV-1 PR, the IC50 worked out at 2.61 nM. In series [1], this molecule gave a rat_CLt of 0.14 mL/min/kg.

In turn, `COc1ccc(S(=O)(=O)N(CC2CCC2)CC(O)C(Cc2ccc(NCc3ccccc3C(=O)Nc3sc4c(c3C(=O)O)CC(C)(C)CC4)cc2)NC(=O)OC2COC3OCCC23)cc1` (stereo not shown) [Compound I-860] returned an IC50 against HIV-1 PR of 3.56 nM. Besides, in series [1], the rat_CLt is given as 0.0981 mL/min/kg.

For `COc1ccc(S(=O)(=O)N(CC(C)C)CC(O)C(Cc2ccc(NCc3cc(N4CCC4)ccc3-c3sc4c(c3C(=O)O)CC(C)(C)CC4)cc2)NC(=O)OC2COC3(C)OCCC23)cc1` (stereo not shown) [Compound I-693], at HIV-1 PR, the IC50 came to 3.3 nM. The molecule also yielded a rat_CLt in series [1] of 0.247 mL/min/kg.

`COc1ccc(S(=O)(=O)N(CC(O)C(Cc2ccc(NCc3ccccc3-c3sc4c(c3C(=O)O)CC(C)(C)CC4)cc2)NC(=O)OC2COC3(C)OCCC23)CC(C)(C)C)cc1` (stereo not shown) [Compound I-473] yielded an IC50 at HIV-1 PR of 2.71 nM. The molecule further had a rat_CLt in series [1] of 1.22 mL/min/kg.

On to `COc1ccc(S(=O)(=O)N(CC(C)C)CC(O)C(Cc2ccc(NCc3ccc(N4CCCC4=O)cc3-c3sc4c(c3C(=O)O)CC(C)(C)CC4)cc2)NC(=O)OC2COC3(C)OCCC23)cc1` (stereo not shown) [Compound I-742], for which, on HIV-1 PR, 2.08 nM corresponded to half-maximal inhibition (IC50). This molecule had a rat_CLt in series [1] of 5.03 mL/min/kg.

Turning to `CC1(C)CCc2sc(NC(=O)c3ccccc3CNc3ccc(CC(NC(=O)OC4COC5OCCC45)C(O)CN(CC4CCCC4)S(=O)(=O)c4ccc5ncsc5c4)cc3)c(C(=O)O)c2C1` (stereo not shown) [Compound I-859], on HIV-1 PR, the IC50 was 3.41 nM. Further, the rat_CLt in series [1] is listed as 0.2 mL/min/kg.
